Test results published in patent US11000033B2, “Ketone or oxime compound, and herbicide” (NISSAN CHEMICAL CORPORATION, priority 2014, dated 2021).

What was measured:
Format in all cases: in vivo
[1] = system: Amaranthus retroflexus; test: Test Example 4: herbicidal effect by soil treatment (symbol N)
Method in brief: (§1)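 Seeds were sown in sterilized diluvial soil, covered with about 1.5 cm of soil, and the soil surface was sprayed with a water-diluted emulsion of the compound at a predetermined rate. Plants grew in a greenhouse at 25° C. to 30° C.; effects were scored visually 3 weeks after application.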

[2] = system: Setaria viridis; test: Test Example 5: herbicidal effect by foliage application, plastic box (symbol G); settings: 320 g/ha, 3 weeks after application
Method in brief: (§2)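 Visual herbicidal score, taken three weeks post-application, of seedlings sprayed on the foliage with water-diluted emulsion at a predetermined amount; plants were 14 days old, greenhouse-raised at 25° C. to 30° C.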

[3] = system: soybean; test: Test Example 5: effect on crop by foliage application, plastic box (symbol d); settings: 320 g/ha, 3 weeks after application
Method in brief: (§3)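 Greenhouse test at 25° C. to 30° C. Seeds of crops and weeds were spot-sown in boxes of sterilized diluvial soil under roughly 1.5 cm soil cover, then grown for foliage treatment.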

[4] = system: Apera spica-venti; test: Test Example 4: herbicidal effect by soil treatment (symbol L)
Method in brief: as §1

[5] = system: beet; test: Test Example 5: effect on crop by foliage application, plastic box (symbol f); settings: 320 g/ha, 3 weeks after application
Method in brief: as §3

[6] = system: Echinochloa oryzacola Vasing.; test: Test Example 2: herbicidal activity, application during weed generation in submerged conditions (symbol A); settings: Table 23; application herbicide amount 320 g/ha; grade 0-5 by criteria of Test Example 1
Method in brief: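 Scoring of herbicidal effect took place 3 weeks after treatment, using the criteria of the earlier test. Treatment was water-surface application of diluted emulsifiable compound at a set dose. Plants were at one- to two-leaf stage in submerged alluvial soil (4 cm depth), greenhouse 25-30° C.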

[7] = system: Cyperus difformis; test: Test Example 3: herbicidal effect by foliage application, Wagner pot (symbol E); settings: application herbicide amount 320 g/ha
Method in brief: (§4)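 Foliar spray of a water-diluted emulsion at a predetermined herbicide amount, applied to 14-day-old plants. Seedlings were raised in flooded alluvial soil (0.1–0.5 cm water) at 25–30 °C in a greenhouse. Injury was rated after 3 weeks against fixed criteria.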

[8] = system: Apera spica-venti; test: Test Example 5: herbicidal effect by foliage application, plastic box (symbol L); settings: 320 g/ha, 3 weeks after application
Method in brief: as §2

[9] = system: rice plant; test: Test Example 5: effect on crop by foliage application, plastic box (symbol b); settings: 320 g/ha, 3 weeks after application
Method in brief: as §3

[10] = system: Echinochloa oryzacola Vasing.; test: Test Example 1: herbicidal activity, application before weed generation in submerged conditions (symbol A); settings: application herbicide amount 320 g/ha
Method in brief: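 Flooded alluvial soil (4 cm water) was mixed-sown with the three weed species, and 2.5-leaf rice seedlings were transplanted. On sowing day, a water-diluted emulsion at a predetermined rate was applied to the water surface. After 3 weeks in a 25–30 °C greenhouse, effect was scored 0–5.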

[11] = system: Echinochloa crus-galli var. crus-galli; test: Test Example 3: herbicidal effect by foliage application, Wagner pot (symbol H); settings: application herbicide amount 320 g/ha
Method in brief: as §4

[12] = system: Stellaria media; test: Test Example 5: herbicidal effect by foliage application, plastic box (symbol P); settings: 320 g/ha, 3 weeks after application
Method in brief: as §2

[13] = system: Echinochloa crus-galli var. crus-galli; test: Test Example 4: herbicidal effect by soil treatment (symbol H)
Method in brief: as §1

[14] = application herbicide amount 320 g/ha

Row | Compound | N (Amaranthus retroflexus) herbicidal effect grade [1, 14] | G: Setaria viridis, herbicidal effect grade [2] | d: soybean, effect on crop grade [3] | L (Apera spica-venti) herbicidal effect grade [4, 14] | f: beet, effect on crop grade [5] | Herbicidal effect grade, A: Echinochloa oryzacola Vasing. [6] | herbicidal effect on E, grade 0-5 [7] | L: Apera spica-venti, herbicidal effect grade [8] | b: directly sowed rice plant, effect on crop grade [9] | Herbicidal effect grade, A: Echinochloa oryzacola Vasing. [10] | herbicidal effect on H (Echinochloa crus-galli var. crus-galli), grade 0-5 [11] | P: Stellaria media, herbicidal effect grade [12] | H (Echinochloa crus-galli var. crus-galli) herbicidal effect grade [13, 14] | also measured
1 | CON=C(C)CC1CC(OC(=O)C(C)Cl)=C(c2c(C)cc(C)cc2C)C1=O (stereo not drawn) [1-042] | 4 (Herbicidal ratio of 70% or higher and lower than 90%) | 5 (Herbicidal ratio of 90% or more (almost completely withered)) | 3 (Herbicidal ratio of 40% or higher and lower than 70%) | 5 (Herbicidal ratio of 90% or more (almost completely withered)) | 1 (Herbicidal ratio of 5% or higher and lower than 20%) | 5 (Herbicidal ratio of 90% or more (almost completely withered)) | 5 (Herbicidal ratio of 90% or more (almost completely withered)) | 5 (Herbicidal ratio of 90% or more (almost completely withered)) | 5 (Herbicidal ratio of 90% or more (almost completely withered)) | 0 (Herbicidal ratio of 5% or lower (almost no effect)) | 5 (Herbicidal ratio of 90% or more (almost completely withered)) | 0 (Herbicidal ratio of 5% or lower (almost no effect)) | 5 (Herbicidal ratio of 90% or more (almost completely withered)) | 
2 | CON=C(C)CC1CC(OC(=O)COc2ccccc2OC)=C(c2c(C)cc(C)cc2C)C1=O (stereo not drawn) [1-067] | 5 (Herbicidal ratio of 90% or more (almost completely withered)) | 5 (Herbicidal ratio of 90% or more (almost completely withered)) | 4 (Herbicidal ratio of 70% or higher and lower than 90%) | 5 (Herbicidal ratio of 90% or more (almost completely withered)) | 1 (Herbicidal ratio of 5% or higher and lower than 20%) | 4 (Herbicidal ratio of 70% or higher and lower than 90%) | 5 (Herbicidal ratio of 90% or more (almost completely withered)) | 5 (Herbicidal ratio of 90% or more (almost completely withered)) | 5 (Herbicidal ratio of 90% or more (almost completely withered)) | 5 (Herbicidal ratio of 90% or more (almost completely withered)) | 5 (Herbicidal ratio of 90% or more (almost completely withered)) | 3 (Herbicidal ratio of 40% or higher and lower than 70%) | 5 (Herbicidal ratio of 90% or more (almost completely withered)) | 
3 | CON=C(CC1CC(O)=C(c2c(C)cc(C#C[Si](C)(C)C)cc2C)C1=O)C(C)C (stereo not drawn) [9-005] |  | 4 (Herbicidal ratio of 70% or higher and lower than 90%) | 0 (Herbicidal ratio of 5% or lower (almost no effect)) |  | 0 (Herbicidal ratio of 5% or lower (almost no effect)) | 3 (Herbicidal ratio of 40% or higher and lower than 70%) |  | 5 (Herbicidal ratio of 90% or more (almost completely withered)) | 4 (Herbicidal ratio of 70% or higher and lower than 90%) | 4 (Herbicidal ratio of 70% or higher and lower than 90%) |  | 0 (Herbicidal ratio of 5% or lower (almost no effect)) |  | Herbicidal effect grade, N: Amaranthus retroflexus [1, 14]: 0 (Herbicidal ratio of 5% or lower (almost no effect)); Herbicidal effect grade, L: Apera spica-venti [4, 14]: 1 (Herbicidal ratio of 5% or higher and lower than 20%); E herbicidal effect grade ([7]; Table 24): 2 (Herbicidal ratio of 20% or higher and lower than 40%); H (Echinochloa crus-galli var. crus-galli) herbicidal effect grade ([11]; Table 24): 5 (Herbicidal ratio of 90% or more (almost completely withered)); Herbicidal effect grade, H: Echinochloa crus-galli var. crus-galli [13, 14]: 0 (Herbicidal ratio of 5% or lower (almost no effect))
4 | CON=C(C)CC1CC(OC(=O)COc2ccc(C)cc2)=C(c2c(C)cc(C)cc2C)C1=O (stereo not drawn) [1-072] | 5 (Herbicidal ratio of 90% or more (almost completely withered)) | 5 (Herbicidal ratio of 90% or more (almost completely withered)) | 2 (Herbicidal ratio of 20% or higher and lower than 40%) | 5 (Herbicidal ratio of 90% or more (almost completely withered)) | 1 (Herbicidal ratio of 5% or higher and lower than 20%) | 5 (Herbicidal ratio of 90% or more (almost completely withered)) | 4 (Herbicidal ratio of 70% or higher and lower than 90%) | 5 (Herbicidal ratio of 90% or more (almost completely withered)) | 5 (Herbicidal ratio of 90% or more (almost completely withered)) | 5 (Herbicidal ratio of 90% or more (almost completely withered)) | 4 (Herbicidal ratio of 70% or higher and lower than 90%) | 2 (Herbicidal ratio of 20% or higher and lower than 40%) | 5 (Herbicidal ratio of 90% or more (almost completely withered)) | 
5 | CON=CCC1CC(O)=C(c2c(C)cc(C)cc2C)C1=O (stereo not drawn) [1-050] | 0 (Herbicidal ratio of 5% or lower (almost no effect)) | 5 (Herbicidal ratio of 90% or more (almost completely withered)) | 0 (Herbicidal ratio of 5% or lower (almost no effect)) | 0 (Herbicidal ratio of 5% or lower (almost no effect)) | 0 (Herbicidal ratio of 5% or lower (almost no effect)) | 3 (Herbicidal ratio of 40% or higher and lower than 70%) | 5 (Herbicidal ratio of 90% or more (almost completely withered)) | 3 (Herbicidal ratio of 40% or higher and lower than 70%) | 5 (Herbicidal ratio of 90% or more (almost completely withered)) | 4 (Herbicidal ratio of 70% or higher and lower than 90%) | 5 (Herbicidal ratio of 90% or more (almost completely withered)) | 0 (Herbicidal ratio of 5% or lower (almost no effect)) | 4 (Herbicidal ratio of 70% or higher and lower than 90%) | 
6 | COCC(=O)OC1=C(c2c(C)cc(C)cc2C)C(=O)C(CC(C)=NOC)C1 (stereo not drawn) [1-093] |  |  |  |  |  | 5 (Herbicidal ratio of 90% or more (almost completely withered)) | 5 (Herbicidal ratio of 90% or more (almost completely withered)) |  |  | 5 (Herbicidal ratio of 90% or more (almost completely withered)) | 5 (Herbicidal ratio of 90% or more (almost completely withered)) |  |  | N: Amaranthus retroflexus, herbicidal effect grade ([1]; 320 g/ha): 3 (Herbicidal ratio of 40% or higher and lower than 70%); G: Setaria viridis, herbicidal effect (criteria 0-5) [2]: 5 (Herbicidal ratio of 90% or more (almost completely withered)); d: soybean, effect on crop (criteria 0-5) [3]: 3 (Herbicidal ratio of 40% or higher and lower than 70%); L: Apera spica-venti, herbicidal effect grade ([4]; 320 g/ha): 5 (Herbicidal ratio of 90% or more (almost completely withered)); f: beet, effect on crop (criteria 0-5) [5]: 0 (Herbicidal ratio of 5% or lower (almost no effect)); L: Apera spica-venti, herbicidal effect (criteria 0-5) [8]: 5 (Herbicidal ratio of 90% or more (almost completely withered)); b: directly sowed rice plant, effect on crop (criteria 0-5) [9]: 5 (Herbicidal ratio of 90% or more (almost completely withered)); P: Stellaria media, herbicidal effect (criteria 0-5) [12]: 2 (Herbicidal ratio of 20% or higher and lower than 40%); H: Echinochloa crus-galli var. crus-galli, herbicidal effect grade ([13]; 320 g/ha): 5 (Herbicidal ratio of 90% or more (almost completely withered))
